Values joined by “and” are separate entries in the source; they are usually repeats but may differ in a detail not shown here. Equal entries are not always repeated.
Tests used:
Settings in all cases: incubation time: 72 h
[1] = tested on: CAL-120; assay: normalised viability (% of control), CellTiter-Blue; higher = more viable cells (about 100 = DMSO control)
How it was run: (§1)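 Breast cancer cell lines were treated for 72 h in 384-well format and measured by CellTiter-Blue fluorescence at 560/590 nm. Results were normalised per plate to vehicle (100) and a positive kill control (0). The entry is normalised viability at a single listed concentration of the series.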

[2] = tested on: CAL-51; assay: as above
How it was run: as §1

[3] = tested on: CAL-85-1; assay: as above
How it was run: as §1

[4] = tested on: HCC1599; assay: as above
How it was run: as §1

[5] = tested on: Hs578T; assay: as above
How it was run: as §1

[6] = tested on: MDA-MB-436; assay: as above
How it was run: as §1

[7] = tested on: MDA-MB-468; assay: as above
How it was run: as §1

[8] = tested on: BT-474; assay: drug sensitivity score (DSS), CellTox Green (DSS (AUC-based score)); higher = stronger drug effect (viability inhibition or cytotoxicity); extreme values may be limits of the assay
How it was run: (§2)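 The area under the fitted dose-response curve was used to calculate the drug sensitivity score. Cells from breast cancer lines were incubated for 72 h in 384-well plates with compound at 5 concentrations spaced 10-fold over a 10,000-fold range specific to each compound. Plates were read for CellTox Green and then CellTiter-Glo, and normalised to 0.1 % DMSO and a positive kill control.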

[9] = tested on: BT-549; assay: as above
How it was run: as §2

[10] = tested on: CAL-120; assay: as above
How it was run: as §2

[11] = tested on: CAL-148; assay: as above
How it was run: as §2

[12] = tested on: CAL-51; assay: as above
How it was run: as §2

[13] = tested on: CAL-85-1; assay: as above
How it was run: as §2

[14] = tested on: DU-4475; assay: as above
How it was run: as §2

[15] = tested on: HCC1143; assay: as above
How it was run: as §2

[16] = tested on: HCC1599; assay: as above
How it was run: as §2

[17] = tested on: HCC1937; assay: as above
How it was run: as §2

[18] = tested on: HDQ-P1; assay: as above
How it was run: as §2

[19] = tested on: Hs578T; assay: as above
How it was run: as §2

[20] = tested on: MCF-10A; assay: as above
How it was run: as §2

[21] = tested on: MDA-MB-231; assay: as above
How it was run: as §2

[22] = tested on: MDA-MB-436; assay: as above
How it was run: as §2

[23] = tested on: MDA-MB-453; assay: as above
How it was run: as §2

[24] = tested on: MDA-MB-468; assay: as above
How it was run: as §2

[25] = tested on: MFM-223; assay: as above
How it was run: as §2

Cn1cc(C2=Nc3cc(NC(=O)C(N)C4CCCCC4)cc4c3C2=CNNC4=O)cn1 (stereo not given)
normalised viability [%]
Settings | [1] | [2] | [3] | [4] | [5] | [6] | [7]
3 nM | – | 104 | 89 | – | – | – | –
10 nM | 96.5 | – | – | 94.6 | 122 | 102 | 112
30 nM | – | 87.2 | 78.3 | – | – | – | –
100 nM | – | 93 | 90 | – | – | – | –
1000 nM | 57.2 | – | – | 52.8 | 35.1 | 70 | 19.4
10000 nM | 27 | – | – | 42 | 29.5 | 32.8 | 10.4

Settings | drug sensitivity score
[8] | 0
[9] | 4.35
[10] | 1.7
[11] | 0
[12] | 11
[13] | 12
[14] | 0
[15] | 0
[16] | 0
[17] | 0
[18] | 7.95
[19] | 1.58
[20] | 16.2
[21] | 8.99
[22] | 0
[23] | 3.06
[24] | 3.14
[25] | 5.76

Cn1cnc2c(F)c(Nc3ccc(Br)cc3Cl)c(C(=O)NOCCO)cc21 [Selumetinib]
normalised viability [%]
Settings | [1] | [2] | [3] | [4] | [5] | [6] | [7]
3 nM | – | 116 | 88.1 | – | – | – | –
10 nM | 78.8 | – | – | 112 | 90.8 | 113 | 106
30 nM | – | 102 | 93.6 | – | – | – | –
100 nM | – | 96.3 | 100 | – | – | – | –
1000 nM | 78.6 | – | – | 78.3 | 89.8 | 59.8 | 95
10000 nM | 63.3 | – | – | 76.3 | 76.2 | 101 | 69.5

Settings | drug sensitivity score
[8] | 0
[9] | 0
[10] | 2
[11] | 0
[12] | 0
[13] | 0
[14] | 8.17
[15] | 0
[16] | 0
[17] | 0
[18] | 2.06
[19] | 0
[20] | 0
[21] | 13.2
[22] | 0
[23] | 0
[24] | 6.94
[25] | 0

CC1(C)CNc2cc(NC(=O)c3cccnc3NCc3ccncc3)ccc21 [Motesanib]
normalised viability [%]
Settings | [1] | [2] | [3] | [4] | [5] | [6] | [7]
3 nM | – | 109 | 83.1 | – | – | – | –
10 nM | 74.4 | – | – | 83.8 | 104 | 72.5 | 88.3
30 nM | – | 110 | 80.9 | – | – | – | –
100 nM | – | 97.2 | 85.3 | – | – | – | –
1000 nM | 78.3 | – | – | 98.1 | 95.5 | 63 | 85.3
10000 nM | 82.4 | – | – | 95.9 | 95.7 | 73 | 88.2

Settings | drug sensitivity score
[8] | 0
[9] | 0
[10] | 0
[11] | 0
[12] | 0
[13] | 0
[14] | 0
[15] | 0
[16] | 0
[17] | 0
[18] | 0
[19] | 0
[20] | 0
[21] | 0
[22] | 0
[23] | 0
[24] | 0
[25] | 0

CC(=O)O[C@@]12CO[C@@H]1C[C@H](O)[C@@]1(C)C(=O)[C@H](O)C3=C(C)[C@@H](OC(=O)[C@H](O)[C@@H](NC(=O)OC(C)(C)C)c4ccccc4)C[C@@](O)([C@@H](OC(=O)c4ccccc4)[C@H]21)C3(C)C [Docetaxel]
normalised viability
Settings | [1] | [2] | [3] | [4] | [5] | [6] | [7]
0.3 nM | – | 112% and 93.8% | 96.7% and 101% | – | – | – | –
1 nM | 84.9% and 81.7% | – | – | 134% and 119% | 69% and 63.9% | 85% and 80.1% | 69.7% and 68.9%
3 nM | – | 67.8% and 60.9% | 56% and 56.9% | – | – | – | –
10 nM | – | 45.5% and 33.4% | 36.1% and 35.2% | – | – | – | –
100 nM | 25% and 23.5% | – | – | 101% and 94.3% | 11.7% and 12.4% | 19.3% and 34% | 53% and 46.7%
1000 nM | 25.8% and 23.3% | – | – | 104% and 99.7% | 12.3% and 9.74% | 38.6% and 43.8% | 46.3% and 52.4%

Settings | drug sensitivity score
[8] | 11.8
[9] | 11.4
[10] | 0.904
[11] | 0
[12] | 26.2
[13] | 25.5
[14] | 0
[15] | 5.08
[16] | 0
[17] | 1.03
[18] | 6.92
[19] | 19.2
[20] | 19.1
[21] | 31
[22] | 0
[23] | 0
[24] | 0
[25] | 10.2

Nc1ncn([C@@H]2O[C@H](CO)[C@@H](O)[C@H]2O)c(=O)n1 [Azacitidine]
normalised viability [%]
Settings | [1] | [2] | [3] | [4] | [5] | [6] | [7]
3 nM | – | 102 | 98.5 | – | – | – | –
10 nM | 80.9 | – | – | 111 | 98.4 | 114 | 110
30 nM | – | 104 | 97.8 | – | – | – | –
100 nM | – | 104 | 92.6 | – | – | – | –
1000 nM | 88.9 | – | – | 72.8 | 90.2 | 86.3 | 40.7
10000 nM | 60.9 | – | – | 88.4 | 36 | 70.3 | 20.9

Settings | drug sensitivity score
[8] | 1.95
[9] | 0
[10] | 0
[11] | 0
[12] | 0
[13] | 0
[14] | 0
[15] | 0
[16] | 0
[17] | 0
[18] | 0
[19] | 0
[20] | 0
[21] | 0
[22] | 1.61
[23] | 0
[24] | 0.523
[25] | 0
